Results taken from US8580843B2, “Use of diindolylmethane (DIM) compounds and derivatives as neuroprotective agents” (Colorado State University Research Foundation, priority 2008, dated 2013).

Tests used:
[1] = test system: 3-nitrotyrosine protein adducts in dopaminergic neurons of the substantia nigra; test: Protein nitration in dopaminergic neurons of mice treated with MPTP; type: in vivo, C57B1/6 mice; conditions: 50 mg/Kg oral gavage in corn oil once per day for four days following MPTP; substantia nigra 7 days following MPTP
Procedure: C57B1/6 mice were treated with MPTP (2 injections of 15 mg/kg, 12 hours apart) in the presence and absence of DIM-C-pPhOCH3 (DIM5) and assessed for 3-nitrotyrosine protein adducts (a marker of nitrosative stress and excessive NO/peroxynitrite formation). DIM-C-pPhOCH3 was administered once per day for four days following MPTP treatment by oral gavage in corn oil at 50 mg/Kg and frozen sections through the substantia nigra were prepared 7 days following MPTP. Immunofluorescence images were collected using a 40× Zeiss PlanApochromat objective for tyrosine hydroxylase (green), 3-nitrotyrosine (red), and DAPI (blue; DNA/nuclear stain). […] DIM-C-pPhOCH3 prevented protein nitration in dopaminergic neurons in mice treated with MPTP.

[2] = test system: proximal NF-κB enhancer element of the Nos2 promoter; test: Chromatin immunoprecipitation (ChIP) at the proximal NF-κB enhancer element of the Nos2 promoter in astrocytes; type: cell-based, mouse; conditions: 10 μM co-treatment; FIG. 5
Procedure: Chromatin Immunoprecipitation (ChIP). ChIP procedures were adapted from a previously published report (Weinmann and Farnham, 2002) and optimized for primary astrocytes according to recent studies from our laboratory. Astrocytes were grown to confluence in 10 cm plates (Approx. 8.8×10^6 cells) and were treated for 3 hours with MPTP (10 μM), TNF-α (10 pg/ml) and IFN-γ (1 ng/ml) with or without DIM-C-pPhtBu (10 μM), rosiglitazone (10 μM) or a DMSO vehicle control for 3 hours prior to analysis. DNA was sheared into approximate 500 bp fragments by three ten-second pulses using a Tekmar Sonic Disrupter (Tekmar Co., Cincinnati, Ohio) set at 30% output, followed by collection of 10% input controls and addition of 2 μg precipitating antibody. Immune complexes were allowed to form overnight at 4° C. with gentle agitation, followed by the addition of protein-G magnetic beads (Active Motif, Carlsbad, Calif.) for an additional 90 min. Immunopurified DNA was isolated via phenol/chloroform extraction and subject to PCR using primers designed around the proximal murine Nos2 NF-κB binding region (Xie et al., 1992) (forward: 5′-ATGGCCTTGCATGAGGATACACCA-3′ Chromatin Immunoprecipitation (ChIP). ChIP procedures were adapted from a previously published report (Weinmann and Farnham, 2002) and optimized for primary astrocytes according to recent studies from our laboratory. Astrocytes were grown to confluence in 10 cm plates (Approx. 8.8×10^6 cells) and were treated for 3 hours with MPTP (10 μM), TNF-α (10 pg/ml) and IFN-γ (1 ng/ml) with or without DIM-C-pPhtBu (10 μM), rosiglitazone (10 μM) or a DMSO vehicle control for 3 hours prior to analysis. DNA was sheared into approximate 500 bp fragments by three ten-second pulses using a Tekmar Sonic Disrupter (Tekmar Co., Cincinnati, Ohio) set at 30% output, followed by collection of 10% input controls and addition of 2 μg precipitating antibody. Immune complexes were allowed to form overnight at 4° C. with gentle agitation, followed by the addition of protein-G magnetic beads (Active Motif, Carlsbad, Calif.) for an additional 90 min. Immunopurified DNA was isolated via phenol/chloroform extraction and subject to PCR using primers designed around the proximal murine Nos2 NF-κB binding region (Xie et al., 1992) (forward: 5′-ATGGCCTTGCATGAGGATACACCA-3′(SEQ ID NO:5); reverse: 5′-GAGTCTCAGTCTTCAACTCCCTGT-3′(SEQ ID NO:6)). Amplicons were separated by 2% agarose gel electrophoresis and stained with ethidium bromide.
To determine the mechanism by which DIM-C-pPhtBu modulates NF-κB activity, the ChIP assay was used to identify specific DNA-protein interactions at the proximal NF-κB enhancer element (-86 to -76) of the Nos2 promoter.
Primary cultured astrocytes were treated with MPTP and TNF/IFN in the presence or absence of DIM-C-pPhOCH3 (DIMS, 1 uM) or rosiglitazone (Ro, 10 uM) and cellular lysates subjected to chromatin immunoprecipitation (ChIP) assay for HDAC3 association with the proximal NF-kB binding site in the Nos2 promoter. HDAC3 is a transcriptional co-repressor of Nos2 gene expression.

[3] = test system: astrocyte activation, NOS2 and NF-κB/GFP expression in striatum; test: Anti-inflammatory efficacy in transgenic NF-κB-GFP reporter mice treated with MPTP; type: in vivo, mice (C57B1/6 background); conditions: 50 mg/Kg oral gavage in corn oil once per day for four days following MPTP; striatum 7 days following MPTP
Procedure: Transgenic NF-κB-GFP reporter mice (C57B1/6 background) were exposed to MPTP (2 injections of 15 mg/kg, 12 hours apart) in the presence and absence of DIM-C-pPhtBu and assessed for activation of astrocytes, expression of NOS2, and expression of GFP (representing NF-kB activity). DIM-C-pPhtBu was administered once per day for four days following MPTP treatment by oral gavage in corn oil at 50 mg/Kg and frozen sections through the striatum were prepared 7 days following MPTP. Immunofluorescent images were collected using a 40× Zeiss PlanApochromat objective for GFAP as marker for astrocytes (purple), NOS2 (red), green fluorescent protein (GFP; green), and DAPI (blue; DNA stain). Co-location of red and green channels is depicted in the image as yellow. […] This activated glial phenotype was inhibited by treatment with DIM-C-pPhtBu.

[4] = test system: NF-κB; conditions: proximal p65 enhancer element; cited from earlier work

| Structure (SMILES) | Protein nitration (3-nitrotyrosine) in dopaminergic neurons [1] | Binding of p65 to the Nos2 promoter induced by MPTP and cytokines [2] | Recruitment of PPAR-γ to the proximal NF-κB response element [2] | Stabilization of NCoR2 at the proximal NF-κB response element [2] | MPTP-induced activated glial phenotype (hypertrophic astrocytes expressing NOS2 and NF-κB/GFP) [3] | Effect on NF-κB in RAW macrophages [4] |
| --- | --- | --- | --- | --- | --- | --- |
| COc1ccc(C(c2c[nH]c3ccccc23)c2c[nH]c3ccccc23)cc1 [DIM-C-pPhOCH3, 1,1-bis(3′-indolyl)-1-(p-methoxyphenyl)methane] | completely suppressed |  |  |  |  |  |
| CC(C)(C)c1ccc(C(c2c[nH]c3ccccc23)c2c[nH]c3ccccc23)cc1 [DIM-C-pPhtBu, 1,1-bis(3′-indolyl)-1-(p-t-butylphenyl)methane] |  | blocked | did not recruit PPAR-γ | nor did it stabilize NCoR2 | inhibited |  |
| CN(CCOc1ccc(CC2SC(=O)NC2=O)cc1)c1ccccn1 (centres unmarked) [rosiglitazone, 5-((4-(2-(methyl-2-pyridinylamino)ethoxy)phenyl)methyl)-2,4-thiazolidinedione, reference compound] |  |  | recruited PPAR-γ | prevented degradation of NCoR2 |  | antagonize NF-κB by stabilizing NCoR2 |
